Assay results as given in ChEMBL document CHEMBL1671689, “Activity of ceftaroline against recent emerging serotypes of Streptococcus pneumoniae in the United States” (2010).

Tests used:
Assay type in all cases: functional
Streptococcus pneumoniae [1] = experiment: Antimicrobial activity against Streptococcus pneumoniae serotype 22F assessed as percent susceptible isolates by broth microdilution method in presence of beta-lactamase inhibitor clavulanic acid
Streptococcus pneumoniae [2] = experiment: Antimicrobial activity against Streptococcus pneumoniae serotype 3 by broth microdilution method in presence of beta-lactamase inhibitor clavulanic acid
Streptococcus pneumoniae [3] = experiment: Antimicrobial activity against multiple drug resistant Streptococcus pneumoniae serotype 19F by broth microdilution method in presence of beta-lactamase inhibitor clavulanic acid
Streptococcus pneumoniae [4] = experiment: Antimicrobial activity against Streptococcus pneumoniae serotype 11A by broth microdilution method in presence of beta-lactamase inhibitor clavulanic acid
Streptococcus pneumoniae [5] = experiment: Antimicrobial activity against multiple drug resistant Streptococcus pneumoniae serotype 19F assessed as percent susceptible isolates by broth microdilution method in presence of beta-lactamase inhibitor clavulanic acid
Streptococcus pneumoniae [6] = experiment: Antimicrobial activity against Streptococcus pneumoniae serotype 35B by broth microdilution method in presence of beta-lactamase inhibitor clavulanic acid
Streptococcus pneumoniae [7] = experiment: Antimicrobial activity against multiple drug resistant Streptococcus pneumoniae serotype 19A by broth microdilution method in presence of beta-lactamase inhibitor clavulanic acid
Streptococcus pneumoniae [8] = experiment: Antimicrobial activity against Streptococcus pneumoniae serotype 19F assessed as percent susceptible isolates by broth microdilution method in presence of beta-lactamase inhibitor clavulanic acid
Streptococcus pneumoniae [9] = experiment: Antimicrobial activity against Streptococcus pneumoniae serotype 3 assessed as percent susceptible isolates by broth microdilution method in presence of beta-lactamase inhibitor clavulanic acid
Streptococcus pneumoniae [10] = experiment: Antimicrobial activity against multiple drug resistant Streptococcus pneumoniae serotype 19A assessed as percent susceptible isolates by broth microdilution method in presence of beta-lactamase inhibitor clavulanic acid
Streptococcus pneumoniae [11] = experiment: Antimicrobial activity against Streptococcus pneumoniae serotype 19A assessed as percent susceptible isolates by broth microdilution method in presence of beta-lactamase inhibitor clavulanic acid
Streptococcus pneumoniae [12] = experiment: Antimicrobial activity against Streptococcus pneumoniae serotype 15A assessed as percent susceptible isolates by broth microdilution method
Streptococcus pneumoniae [13] = experiment: Antimicrobial activity against Streptococcus pneumoniae serotype 35B assessed as percent susceptible isolates by broth microdilution method in presence of beta-lactamase inhibitor clavulanic acid
Streptococcus pneumoniae [14] = experiment: Antimicrobial activity against multiple drug resistant Streptococcus pneumoniae serotype 6B by broth microdilution method in presence of beta-lactamase inhibitor clavulanic acid
Streptococcus pneumoniae [15] = experiment: Antimicrobial activity against Streptococcus pneumoniae serotype 23B assessed as percent susceptible isolates by broth microdilution method in presence of beta-lactamase inhibitor clavulanic acid
Streptococcus pneumoniae [16] = experiment: Antimicrobial activity against Streptococcus pneumoniae serotype 6C assessed as percent susceptible isolates by broth microdilution method in presence of beta-lactamase inhibitor clavulanic acid
Streptococcus pneumoniae [17] = experiment: Antimicrobial activity against Streptococcus pneumoniae serotype 6C by broth microdilution method in presence of beta-lactamase inhibitor clavulanic acid
Streptococcus pneumoniae [18] = experiment: Antimicrobial activity against multiple drug resistant Streptococcus pneumoniae serotype 6B assessed as percent susceptible isolates by broth microdilution method in presence of beta-lactamase inhibitor clavulanic acid
Streptococcus pneumoniae [19] = experiment: Antimicrobial activity against Streptococcus pneumoniae serotype 7F by broth microdilution method in presence of beta-lactamase inhibitor clavulanic acid
Streptococcus pneumoniae [20] = experiment: Antimicrobial activity against Streptococcus pneumoniae serotype 19A by broth microdilution method in presence of beta-lactamase inhibitor clavulanic acid
Streptococcus pneumoniae [21] = experiment: Antimicrobial activity against Streptococcus pneumoniae serotype 11A assessed as percent susceptible isolates by broth microdilution method in presence of beta-lactamase inhibitor clavulanic acid
Streptococcus pneumoniae [22] = experiment: Antimicrobial activity against Streptococcus pneumoniae serotype 7F assessed as percent susceptible isolates by broth microdilution method in presence of beta-lactamase inhibitor clavulanic acid
Streptococcus pneumoniae [23] = experiment: Antimicrobial activity against Streptococcus pneumoniae serotype 15A assessed as percent susceptible isolates by broth microdilution method in presence of beta-lactamase inhibitor clavulanic acid
Streptococcus pneumoniae [24] = experiment: Antimicrobial activity against Streptococcus pneumoniae serotype 23A assessed as percent susceptible isolates by broth microdilution method in presence of beta-lactamase inhibitor clavulanic acid
Streptococcus pneumoniae [25] = experiment: Antimicrobial activity against multiple drug resistant Streptococcus pneumoniae serotype 19F by broth microdilution method
Streptococcus pneumoniae [26] = experiment: Antimicrobial activity against Streptococcus pneumoniae serotype 7F assessed as percent susceptible isolates by broth microdilution method
Streptococcus pneumoniae [27] = experiment: Antimicrobial activity against multiple drug resistant Streptococcus pneumoniae serotype 6B assessed as percent susceptible isolates by broth microdilution method
Streptococcus pneumoniae [28] = experiment: Antimicrobial activity against Streptococcus pneumoniae serotype 35B by broth microdilution method
Streptococcus pneumoniae [29] = experiment: Antimicrobial activity against Streptococcus pneumoniae serotype 6C assessed as percent susceptible isolates by broth microdilution method
Streptococcus pneumoniae [30] = experiment: Antimicrobial activity against Streptococcus pneumoniae serotype 23A assessed as percent susceptible isolates by broth microdilution method
Streptococcus pneumoniae [31] = experiment: Antimicrobial activity against Streptococcus pneumoniae serotype 35B assessed as percent susceptible isolates by broth microdilution method
Streptococcus pneumoniae [32] = experiment: Antimicrobial activity against multiple drug resistant Streptococcus pneumoniae serotype 19A by broth microdilution method
Streptococcus pneumoniae [33] = experiment: Antimicrobial activity against Streptococcus pneumoniae serotype 22F assessed as percent susceptible isolates by broth microdilution method
Streptococcus pneumoniae [34] = experiment: Antimicrobial activity against Streptococcus pneumoniae serotype 19A by broth microdilution method
Streptococcus pneumoniae [35] = experiment: Antimicrobial activity against multiple drug resistant Streptococcus pneumoniae serotype 6B by broth microdilution method
Streptococcus pneumoniae [36] = experiment: Antimicrobial activity against multiple drug resistant Streptococcus pneumoniae serotype 19A assessed as percent susceptible isolates by broth microdilution method
Streptococcus pneumoniae [37] = experiment: Antimicrobial activity against Streptococcus pneumoniae serotype 11A assessed as percent susceptible isolates by broth microdilution method
Streptococcus pneumoniae [38] = experiment: Antimicrobial activity against Streptococcus pneumoniae serotype 19F assessed as percent susceptible isolates by broth microdilution method
Streptococcus pneumoniae [39] = experiment: Antimicrobial activity against Streptococcus pneumoniae serotype 23B assessed as percent susceptible isolates by broth microdilution method
Streptococcus pneumoniae [40] = experiment: Antimicrobial activity against Streptococcus pneumoniae serotype 3 by broth microdilution method
Streptococcus pneumoniae [41] = experiment: Antimicrobial activity against Streptococcus pneumoniae serotype 6C by broth microdilution method
Streptococcus pneumoniae [42] = experiment: Antimicrobial activity against Streptococcus pneumoniae serotype 7F by broth microdilution method
Streptococcus pneumoniae [43] = experiment: Antimicrobial activity against multiple drug resistant Streptococcus pneumoniae serotype 19F assessed as percent susceptible isolates by broth microdilution method
Streptococcus pneumoniae [44] = experiment: Antimicrobial activity against Streptococcus pneumoniae serotype 11A by broth microdilution method
Streptococcus pneumoniae [45] = experiment: Antimicrobial activity against Streptococcus pneumoniae serotype 3 assessed as percent susceptible isolates by broth microdilution method
Streptococcus pneumoniae [46] = experiment: Antimicrobial activity against Streptococcus pneumoniae serotype 19A assessed as percent susceptible isolates by broth microdilution method

## CC1(C)S[C@@H]2[C@H](NC(=O)[C@H](N)c3ccc(O)cc3)C(=O)N2[C@H]1C(=O)O [AMOXICILLIN]
Streptococcus pneumoniae [1]
  Activity: 100%
Streptococcus pneumoniae [2]
  MIC: ≤ 1 µg/mL
  MIC50: ≤ 1 µg/mL
  MIC90: ≤ 1 µg/mL
Streptococcus pneumoniae [3]
  MIC50: 8 µg/mL
  MIC90: 16 µg/mL
Streptococcus pneumoniae [4]
  MIC: ≤ 1 µg/mL
  MIC50: ≤ 1 µg/mL
  MIC90: ≤ 1 µg/mL
Streptococcus pneumoniae [5]
  Activity: 8.1%
Streptococcus pneumoniae [6]
  MIC50: 2 µg/mL
  MIC90: 4 µg/mL
Streptococcus pneumoniae [7]
  MIC50: 8 µg/mL
  MIC90: 16 µg/mL
Streptococcus pneumoniae [8]
  Activity: 37.9%
Streptococcus pneumoniae [9]
  Activity: 100%
Streptococcus pneumoniae [10]
  Activity: 8.1%
Streptococcus pneumoniae [11]
  Activity: 45%
Streptococcus pneumoniae [12]
  Activity: 100%
Streptococcus pneumoniae [13]
  Activity: 62.7%
Streptococcus pneumoniae [14]
  MIC50: 8 µg/mL
  MIC90: 16 µg/mL
Streptococcus pneumoniae [15]
  Activity: 100%
Streptococcus pneumoniae [16]
  Activity: 100%
Streptococcus pneumoniae [17]
  MIC: ≤ 1 µg/mL
  MIC50: ≤ 1 µg/mL
  MIC90: ≤ 1 µg/mL
Streptococcus pneumoniae [18]
  Activity: 8.1%
Streptococcus pneumoniae [19]
  MIC: ≤ 1 µg/mL
  MIC50: ≤ 1 µg/mL
  MIC90: ≤ 1 µg/mL
Streptococcus pneumoniae [20]
  MIC50: 8 µg/mL
  MIC90: 8 µg/mL
Streptococcus pneumoniae [21]
  Activity: 98%
Streptococcus pneumoniae [22]
  Activity: 62.7%
Streptococcus pneumoniae [23]
  Activity: 100%
Streptococcus pneumoniae [24]
  Activity: 100%

## CN[C@H](CC(C)C)C(=O)N[C@H]1C(=O)N[C@@H](CC(N)=O)C(=O)N[C@H]2C(=O)N[C@H]3C(=O)N[C@H](C(=O)N[C@H](C(=O)O)c4cc(O)cc(O)c4-c4cc3ccc4O)[C@H](O)c3ccc(c(Cl)c3)Oc3cc2cc(c3O[C@@H]2O[C@H](CO)[C@@H](O)[C@H](O)[C@H]2O[C@H]2C[C@](C)(N)[C@H](O)[C@H](C)O2)Oc2ccc(cc2Cl)[C@H]1O [VANCOMYCIN]
Streptococcus pneumoniae [25]
  MIC: ≤ 1 µg/mL
  MIC50: ≤ 1 µg/mL
  MIC90: ≤ 1 µg/mL
Streptococcus pneumoniae [26]
  Activity: 100%
Streptococcus pneumoniae [27]
  Activity: 100%
Streptococcus pneumoniae [28]
  MIC: ≤ 1 µg/mL
  MIC50: ≤ 1 µg/mL
  MIC90: ≤ 1 µg/mL
Streptococcus pneumoniae [29]
  Activity: 100%
Streptococcus pneumoniae [30]
  Activity: 100%
Streptococcus pneumoniae [31]
  Activity: 100%
Streptococcus pneumoniae [32]
  MIC: ≤ 1 µg/mL
  MIC50: ≤ 1 µg/mL
  MIC90: ≤ 1 µg/mL
Streptococcus pneumoniae [33]
  Activity: 100%
Streptococcus pneumoniae [12]
  Activity: 100%
Streptococcus pneumoniae [34]
  MIC: ≤ 1 µg/mL
  MIC50: ≤ 1 µg/mL
  MIC90: ≤ 1 µg/mL
Streptococcus pneumoniae [35]
  MIC: ≤ 1 µg/mL
  MIC50: ≤ 1 µg/mL
  MIC90: ≤ 1 µg/mL
Streptococcus pneumoniae [36]
  Activity: 100%
Streptococcus pneumoniae [37]
  Activity: 100%
Streptococcus pneumoniae [38]
  Activity: 100%
Streptococcus pneumoniae [39]
  Activity: 100%
Streptococcus pneumoniae [40]
  MIC: ≤ 1 µg/mL
  MIC50: ≤ 1 µg/mL
  MIC90: ≤ 1 µg/mL
Streptococcus pneumoniae [41]
  MIC: ≤ 1 µg/mL
  MIC50: ≤ 1 µg/mL
  MIC90: ≤ 1 µg/mL
Streptococcus pneumoniae [42]
  MIC: ≤ 1 µg/mL
  MIC50: ≤ 1 µg/mL
  MIC90: ≤ 1 µg/mL
Streptococcus pneumoniae [43]
  Activity: 100%
Streptococcus pneumoniae [44]
  MIC: ≤ 1 µg/mL
  MIC50: ≤ 1 µg/mL
  MIC90: ≤ 1 µg/mL
Streptococcus pneumoniae [45]
  Activity: 100%
Streptococcus pneumoniae [46]
  Activity: 100%
